Measured values reported in ChEMBL document CHEMBL1156419, “Inhibition of metalloprotease botulinum serotype A from a pseudo-peptide binding mode to a small molecule that is active in primary neurons” (J Biol Chem, 2007).
Where a SMILES comes first, the peptide text is derived from it. The star is where a group is joined. Propanoyl(2S-SH,3-Ph) = O=C([C@@H](S)Cc1ccccc1)*; X1 = O=C([C@H](S)Cc1ccccc1)*

Tested on: not listed separately
Test: Cytotoxicity in embryonic chicken spinal neurons at 1 to 5 uM after 3.5 hrs
Parameters: species or system Gallus gallus

For `N=C(N)N/N=C/c1ccc(-c2cc3ccc(/C=N/NC(=N)N)cc3s2)cc1`, the Activity was “Toxic”.
With `N=C(N)c1ccc2oc(/C=C/C=C/C=C/c3cc4cc(C(=N)N)ccc4o3)cc2c1` the Activity was “Toxic”.

Molecular target: Botulinum neurotoxin type A (Clostridium botulinum (strain Hall / ATCC 3502 / NCTC 13319 / Type A), UniProt P0DPI1)
Test: Inhibition of BoNT/A light chain metalloprotease activity

Sequence of Botulinum neurotoxin type A (P0DPI1 2-448 limits assumed): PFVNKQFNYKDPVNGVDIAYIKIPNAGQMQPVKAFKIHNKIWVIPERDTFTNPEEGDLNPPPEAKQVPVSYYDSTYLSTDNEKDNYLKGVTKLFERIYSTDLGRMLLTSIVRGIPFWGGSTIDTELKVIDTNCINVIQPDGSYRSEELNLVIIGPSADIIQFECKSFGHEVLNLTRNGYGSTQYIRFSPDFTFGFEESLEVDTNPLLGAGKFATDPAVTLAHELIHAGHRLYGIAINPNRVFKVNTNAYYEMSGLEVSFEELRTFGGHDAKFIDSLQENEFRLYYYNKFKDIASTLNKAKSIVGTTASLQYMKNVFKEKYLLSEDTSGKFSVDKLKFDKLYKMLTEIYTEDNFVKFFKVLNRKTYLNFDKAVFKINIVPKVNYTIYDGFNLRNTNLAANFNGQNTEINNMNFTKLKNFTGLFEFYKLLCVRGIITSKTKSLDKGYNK

First: CSCC[C@H](NC(=O)[C@H](CCCCN)NC(=O)[C@@H](NC(=O)[C@H](C)NC(=O)[C@H](CCCNC(=N)N)NC(=O)[C@@H](S)Cc1ccccc1)[C@@H](C)O)C(=O)N[C@@H](CC(C)C)C(=O)O ({Propanoyl(2S-SH,3-Ph)}-RATKML-OH)
Second: CSCC[C@H](NC(=O)[C@H](CCCCN)NC(=O)[C@@H](NC(=O)[C@H](C)NC(=O)[C@H](CCCNC(=N)N)NC(=O)[C@H](S)Cc1ccccc1)[C@@H](C)O)C(=O)N[C@@H](CC(C)C)C(=O)O (X1-RATKML-OH)
The Ki of the first is 27-fold lower: 0.3 µM for the first, 8 µM for the second. The first binds more tightly here.

Compared with `N=C(N)N/N=C/c1ccc(-c2cc3ccc(/C=N/NC(=N)N)cc3s2)cc1`, `N=C(N)c1ccc2oc(/C=C/C=C/C=C/c3cc4cc(C(=N)N)ccc4o3)cc2c1` is 2-fold higher in Ki: 3 µM for the first, 6 µM for the second.

First: C(=C\c1cc2ccc(C3=NCCN3)cc2[nH]1)/c1ccc2cc(C3=NCCN3)[nH]c2c1
Second: NC(N)=NCCC[C@H](NC(=O)[C@@H](S)Cc1ccccc1)C(=O)O
The Ki of the first is 6-fold lower: 10 µM for the first, 60 µM for the second.

Going from `CSCC[C@H](NC(=O)[C@H](CCCCN)NC(=O)[C@@H](NC(=O)[C@H](C)NC(=O)[C@H](CCCCN)NC(=O)[C@@H](S)Cc1ccccc1)[C@@H](C)O)C(=O)N[C@@H](CC(C)C)C(=O)O` ({Propanoyl(2S-SH,3-Ph)}-KATKML-OH) to `CSCC[C@H](NC(=O)[C@H](CCCCN)NC(=O)[C@H](C)NC(=O)[C@H](C)NC(=O)[C@H](CCCNC(=N)N)NC(=O)[C@@H](S)Cc1ccccc1)C(=O)N[C@@H](CC(C)C)C(=O)O` ({Propanoyl(2S-SH,3-Ph)}-RAAKML-OH), the Ki falls from over 300 µM to 0.7 µM.

First: CSCC[C@H](NC(=O)[C@H](C)NC(=O)[C@@H](NC(=O)[C@H](C)NC(=O)[C@H](CCCN=C(N)N)NC(=O)[C@@H](S)Cc1ccccc1)[C@@H](C)O)C(=O)N[C@@H](CC(C)C)C(=O)O ({Propanoyl(2S-SH,3-Ph)}-RATAML-OH)
Second: CSCC[C@H](NC(=O)[C@H](CCCCN)NC(=O)[C@@H](NC(=O)[C@@H](NC(=O)[C@H](CCCN=C(N)N)NC(=O)[C@@H](S)Cc1ccccc1)C(C)C)[C@@H](C)O)C(=O)N[C@@H](CC(C)C)C(=O)O ({Propanoyl(2S-SH,3-Ph)}-RVTKML-OH)
The Ki of the first is 1.5-fold higher: 3 µM for the first, 2 µM for the second.

Going from `CC(C)C[C@H](NC(=O)[C@H](C)NC(=O)[C@H](CCCCN)NC(=O)[C@@H](NC(=O)[C@H](C)NC(=O)[C@H](CCCNC(=N)N)NC(=O)[C@@H](S)Cc1ccccc1)[C@@H](C)O)C(=O)O` ({Propanoyl(2S-SH,3-Ph)}-RATKAL-OH) to `C[C@H](NC(=O)[C@H](CCCNC(=N)N)NC(=O)[C@@H](S)Cc1ccccc1)C(=O)N[C@H](C(=O)N[C@@H](CCCCN)C(=O)O)[C@@H](C)O` ({Propanoyl(2S-SH,3-Ph)}-RATK-OH), the Ki rises from 0.7 µM to 4 µM (5.7-fold). The first binds more tightly here.

First: CSCC[C@H](NC(=O)[C@H](CCCCN)NC(=O)[C@@H](NC(=O)[C@H](C)NC(=O)[C@H](CCCNC(=N)N)NC(=O)[C@@H](N)CS)[C@@H](C)O)C(=O)N[C@@H](CC(C)C)C(=O)O (H-CRATKML-OH)
Second: CSCC[C@H](NC(=O)[C@H](CCCCN)NC(=O)[C@@H](NC(=O)[C@H](C)NC(=O)[C@H](CCCNC(=N)N)NC(=O)[C@@H](S)Cc1ccccc1)[C@@H](C)O)C(=O)N[C@@H](CC(C)C)C(=O)NCC(=O)N[C@@H](CO)C(=O)NCC(=O)O ({Propanoyl(2S-SH,3-Ph)}-RATKMLGSG-OH)
The Ki of the first is 6.7-fold higher: 2 µM for the first, 0.3 µM for the second. The second binds more tightly here.

Compared with `CSCC[C@H](NC(=O)[C@H](CCCCN)NC(=O)[C@@H](NC(=O)[C@H](C)NC(=O)[C@H](CCCN=C(N)N)NC(=O)[C@@H](S)Cc1ccccc1)[C@@H](C)O)C(=O)O` ({Propanoyl(2S-SH,3-Ph)}-RATKM-OH), `C[C@H](NC(=O)[C@H](CCCNC(=N)N)NC(=O)[C@@H](S)Cc1ccccc1)C(=O)N[C@H](C(=O)O)[C@@H](C)O` is 75-fold higher in Ki: 0.4 µM for the first, 30 µM for the second.

With `C[C@H](NC(=O)[C@H](CCCNC(=N)N)NC(=O)[C@@H](S)Cc1ccccc1)C(=O)O` the Ki was 60 µM.
